# Molecular target: PLK1 (Homo sapiens, UniProt P53350)
# Experiment: PLK1 Inhibition Assay I (radioactive-phosphate incorporation)
# Format: biochemical
# Settings: Ki(app); PLK1 Inhibition Assay I or II (table does not say which)
# How it was run: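 Ki(app) values came from non-linear regression of initial rates after background subtraction, with phosphopeptide measured by phosphocellulose filter binding and scintillation counting. PLK1 at 2 nM was preincubated with compound (typically from 10 μM, 2-fold dilutions) for 10 min, then run 240 min at 25° C with 350 μM [γ-33P]ATP and 450 μM peptide substrate in HEPES pH 7.5 buffer.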
# PLK1, sequence (P53350 whole entry): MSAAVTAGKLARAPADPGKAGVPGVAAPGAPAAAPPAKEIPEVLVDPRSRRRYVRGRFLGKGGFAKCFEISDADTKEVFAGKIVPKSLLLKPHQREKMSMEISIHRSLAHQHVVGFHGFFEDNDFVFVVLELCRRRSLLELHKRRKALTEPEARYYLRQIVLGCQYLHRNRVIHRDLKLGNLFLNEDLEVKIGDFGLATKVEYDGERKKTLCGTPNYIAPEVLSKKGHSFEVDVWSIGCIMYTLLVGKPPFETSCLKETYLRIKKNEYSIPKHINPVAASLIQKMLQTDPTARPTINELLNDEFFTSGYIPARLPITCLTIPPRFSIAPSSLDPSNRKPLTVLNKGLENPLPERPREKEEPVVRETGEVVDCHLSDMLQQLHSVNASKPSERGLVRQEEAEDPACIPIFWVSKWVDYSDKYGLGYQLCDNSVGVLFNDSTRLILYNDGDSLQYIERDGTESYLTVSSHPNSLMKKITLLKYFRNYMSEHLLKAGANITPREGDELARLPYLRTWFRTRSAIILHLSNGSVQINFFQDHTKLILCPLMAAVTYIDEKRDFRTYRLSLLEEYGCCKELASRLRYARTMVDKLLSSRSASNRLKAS
row,Ki,Structure (SMILES)
1,0.003 to 0.04 µM,"C[C@@H](Nc1ncc(C#N)c(-c2c[nH]c3ncc(C(F)(F)F)cc23)n1)c1ccc(N2CC[C@H](N(C)C)C2)nc1 [Compound I-290, 2-((R)-1-(6-((S)-3-(dimethylamino)pyrrolidin-1-yl)pyridin-3-yl)ethylamino)-4-(5-(trifluoromethyl)-1H-pyrrolo[2,3-b]pyridin-3-yl)pyrimidine-5-carbonitrile]"
2,0.003 to 0.04 µM,"CC(O)CNc1ncc(C#N)c(-c2c[nH]c3ncc(C(F)(F)F)cc23)n1 (centres unmarked) [Compound I-91, 2-(2-hydroxypropylamino)-4-(5-(trifluoromethyl)-1H-pyrrolo[2,3-b]pyridin-3-yl)pyrimidine-5-carbonitrile]"
3,> 0.04 µM,"N#Cc1cnc(N2CCC[C@@H]2CN)nc1-c1c[nH]c2ncc(C(F)(F)F)cc12 [Compound I-87, 2-((R)-2-(aminomethyl)pyrrolidin-1-yl)-4-(5-(trifluoromethyl)-1H-pyrrolo[2,3-b]pyridin-3-yl)pyrimidine-5-carbonitrile]"
4,0.003 to 0.04 µM,"C[C@@H](Nc1ncc(C#N)c(-c2c[nH]c3ncc(C(F)(F)F)cc23)n1)c1ccc(OC2CCN(C)CC2)cc1 [Compound I-154, 2-((R)-1-(4-(1-methylpiperidin-4-yloxy)phenyl)ethylamino)-4-(5-(trifluoromethyl)-1H-pyrrolo[2,3-b]pyridin-3-yl)pyrimidine-5-carbonitrile]"
5,0.003 to 0.04 µM,"N#Cc1cnc(NCc2cccc(F)c2)nc1-c1c[nH]c2ncc(C(F)(F)F)cc12 [Compound I-18, 2-(3-fluorobenzylamino)-4-(5-(trifluoromethyl)-1H-pyrrolo[2,3-b]pyridin-3-yl)pyrimidine-5-carbonitrile]"
6,0.003 to 0.04 µM,"Cc1cnc2[nH]cc(-c3nc(N[C@@H](CO)C(C)C)ncc3C#N)c2c1 [EG8, 2-((R)-1-hydroxy-3-methylbutan-2-ylamino)-4-(5-methyl-1H-pyrrolo[2,3-b]pyridin-3-yl)pyrimidine-5-carbonitrile]"
7,0.003 to 0.04 µM,"CC(Nc1ncc(C#N)c(-c2c[nH]c3ncc(C(F)(F)F)cc23)n1)c1ccc(N2CCC(O)(C3CC3)CC2)nc1 (centres unmarked) [Compound I-195, 2-(1-(6-(4-cyclopropyl-4-hydroxypiperidin-1-yl)pyridin-3-yl)ethylamino)-4-(5-(trifluoromethyl)-1H-pyrrolo[2,3-b]pyridin-3-yl)pyrimidine-5-carbonitrile]"
8,< 0.003 µM,"C[C@@H](Nc1ncc(C#N)c(-c2c[nH]c3ncc(C(F)(F)F)cc23)n1)c1ccc(CO)cc1 [Compound I-185, 2-((R)-1-(4-(hydroxymethyl)phenyl)ethylamino)-4-(5-(trifluoromethyl)-1H-pyrrolo[2,3-b]pyridin-3-yl)pyrimidine-5-carbonitrile]"
9,0.003 to 0.04 µM,"CCCNc1ncc(C#N)c(-c2c[nH]c3ncc(C(F)(F)F)cc23)n1 [Compound I-93, 2-(propylamino)-4-(5-(trifluoromethyl)-1H-pyrrolo[2,3-b]pyridin-3-yl)pyrimidine-5-carbonitrile]"
10,> 0.04 µM,"N#Cc1cnc(NCCC2CCCN2)nc1-c1c[nH]c2ncc(C(F)(F)F)cc12 (centres unmarked) [Compound I-85, 2-(2-(pyrrolidin-2-yl)ethylamino)-4-(5-(trifluoromethyl)-1H-pyrrolo[2,3-b]pyridin-3-yl)pyrimidine-5-carbonitrile]"
11,0.003 to 0.04 µM,"N#Cc1cnc(Nc2ccccc2)nc1-c1c[nH]c2ncc(C(F)(F)F)cc12 [Compound I-25, 2-(phenylamino)-4-(5-(trifluoromethyl)-1H-pyrrolo[2,3-b]pyridin-3-yl)pyrimidine-5-carbonitrile]"
12,< 0.003 µM,"CCC(=O)N1CCC(C(C)Nc2ncc(C#N)c(-c3c[nH]c4ncc(C(F)(F)F)cc34)n2)CC1 (centres unmarked) [Compound I-187, 2-(1-(1-propionylpiperidin-4-yl)ethylamino)-4-(5-(trifluoromethyl)-1H-pyrrolo[2,3-b]pyridin-3-yl)pyrimidine-5-carbonitrile]"
13,> 0.04 µM,"COc1cccc(CNc2ncc(C#N)c(-c3c[nH]c4ncc(C(F)(F)F)cc34)n2)c1 [Compound I-20, 2-(3-methoxybenzylamino)-4-(5-(trifluoromethyl)-1H-pyrrolo[2,3-b]pyridin-3-yl)pyrimidine-5-carbonitrile]"
14,> 0.04 µM,"COc1cccc(Sc2ncc(C#N)c(-c3c[nH]c4ncc(C(F)(F)F)cc34)n2)c1 [II-11, 2-(3-methoxyphenylthio)-4-(5-(trifluoromethyl)-1H-pyrrolo[2,3-b]pyridin-3-yl)pyrimidine-5-carbonitrile]"
15,0.003 to 0.04 µM,"CCC(CO)Nc1ncc(C#N)c(-c2c[nH]c3ncc(C(F)(F)F)cc23)n1 (centres unmarked) [Compound I-39, 2-(1-hydroxybutan-2-ylamino)-4-(5-(trifluoromethyl)-1H-pyrrolo[2,3-b]pyridin-3-yl)pyrimidine-5-carbonitrile]"
16,< 0.003 µM,"COCC(=O)N1CCC(C(C)Nc2ncc(C#N)c(-c3c[nH]c4ncc(C(F)(F)F)cc34)n2)CC1 (centres unmarked) [Compound I-183, 2-(1-(1-(2-methoxyacetyl)piperidin-4-yl)ethylamino)-4-(5-(trifluoromethyl)-1H-pyrrolo[2,3-b]pyridin-3-yl)pyrimidine-5-carbonitrile]"
17,< 0.003 µM,"C[C@@H](Nc1ncc(C#N)c(-c2c[nH]c3ncc(C(F)(F)F)cc23)n1)[C@H]1CC[C@H](NC(=O)CO)CC1 [Compound I-211, N-((1R,4r)-4-((1R)-1-(5-cyano-4-(5-(trifluoromethyl)-1H-pyrrolo[2,3-b]pyridin-3-yl)pyrimidin-2-ylamino)ethyl)cyclohexyl)-2-hydroxyacetamide]"
18,> 0.04 µM,"N#Cc1cnc(NCc2cc(F)cc(F)c2)nc1-c1c[nH]c2ncc(C(F)(F)F)cc12 [Compound I-48, 2-(3,5-difluorobenzylamino)-4-(5-(trifluoromethyl)-1H-pyrrolo[2,3-b]pyridin-3-yl)pyrimidine-5-carbonitrile]"
19,< 0.003 µM,"CC(Nc1ncc(C#N)c(-c2c[nH]c3ncc(C(F)(F)F)cc23)n1)c1ccc(O)c(Cl)c1 (centres unmarked) [Compound I-122, 2-(1-(3-chloro-4-hydroxyphenyl)ethylamino)-4-(5-(trifluoromethyl)-1H-pyrrolo[2,3-b]pyridin-3-yl)pyrimidine-5-carbonitrile]"
20,0.003 to 0.04 µM,"CCC(O)CNc1ncc(C#N)c(-c2c[nH]c3ncc(C(F)(F)F)cc23)n1 (centres unmarked) [Compound I-96, 2-(2-hydroxybutylamino)-4-(5-(trifluoromethyl)-1H-pyrrolo[2,3-b]pyridin-3-yl)pyrimidine-5-carbonitrile]"
21,0.003 to 0.04 µM,"N#Cc1cnc(NCC2CCCCC2)nc1-c1c[nH]c2ncc(C(F)(F)F)cc12 [Compound I-29, 2-(cyclohexylmethylamino)-4-(5-(trifluoromethyl)-1H-pyrrolo[2,3-b]pyridin-3-yl)pyrimidine-5-carbonitrile]"
22,0.003 to 0.04 µM,"CCC1(O)CCN(c2ccc(C(C)Nc3ncc(C#N)c(-c4c[nH]c5ncc(C(F)(F)F)cc45)n3)cn2)CC1 (centres unmarked) [Compound I-197, 2-(1-(6-(4-ethyl-4-hydroxypiperidin-1-yl)pyridin-3-yl)ethylamino)-4-(5-(trifluoromethyl)-1H-pyrrolo[2,3-b]pyridin-3-yl)pyrimidine-5-carbonitrile]"
23,> 0.04 µM,"CN(Cc1ccccc1)c1ncc(C#N)c(-c2c[nH]c3ncc(C(F)(F)F)cc23)n1 [Compound I-8, 2-(benzyl(methyl)amino)-4-(5-(trifluoromethyl)-1H-pyrrolo[2,3-b]pyridin-3-yl)pyrimidine-5-carbonitrile]"
